Reference: the CheMixHub viscosity set

Test: xn = mol fraction of the nth substance listed

NC=O + CCO
Details | viscosity [mPa·s]
293.15 K, 101 kPa, x1 = 0.0698 | 1.251
298.15 K, 100 kPa, x1 = 0.08099 | 1.17
298.15 K, 100 kPa, x1 = 0.141 | 1.24
298.15 K, 100 kPa, x1 = 0.1644 | 1.27
298.15 K, 100 kPa, x1 = 0.2196 | 1.37
298.15 K, 100 kPa, x1 = 0.25 | 1.43
298.15 K, 100 kPa, x1 = 0.2924 | 1.5
298.15 K, 100 kPa, x1 = 0.3698 | 1.66
298.15 K, 100 kPa, x1 = 0.4031 | 1.73
298.15 K, 100 kPa, x1 = 0.4124 | 1.74
298.15 K, 100 kPa, x1 = 0.5124 | 1.98
298.15 K, 100 kPa, x1 = 0.5644 | 2.11
298.15 K, 100 kPa, x1 = 0.6278 | 2.29
298.15 K, 100 kPa, x1 = 0.7077 | 2.5
298.15 K, 100 kPa, x1 = 0.7726 | 2.67
298.15 K, 100 kPa, x1 = 0.8608 | 2.91
298.15 K, 100 kPa, x1 = 0.9558 | 3.19
298.15 K, 101 kPa, x1 = 0.0698 | 1.152
298.15 K, 101 kPa, x1 = 0.1005 | 1.229
298.15 K, 101 kPa, x1 = 0.1991 | 1.376
298.15 K, 101 kPa, x1 = 0.3014 | 1.563
298.15 K, 101 kPa, x1 = 0.4071 | 1.816
298.15 K, 101 kPa, x1 = 0.4991 | 2.01
298.15 K, 101 kPa, x1 = 0.6093 | 2.259
298.15 K, 101 kPa, x1 = 0.7024 | 2.515
298.15 K, 101 kPa, x1 = 0.8108 | 2.782
298.15 K, 101 kPa, x1 = 0.9 | 3.054
303.15 K, 101 kPa, x1 = 0.0698 | 1.043
303.15 K, 101.3 kPa, x1 = 0.0716 | 0.97
303.15 K, 101.3 kPa, x1 = 0.1365 | 1.03
303.15 K, 101.3 kPa, x1 = 0.2357 | 1.1
303.15 K, 101.3 kPa, x1 = 0.3142 | 1.3
303.15 K, 101.3 kPa, x1 = 0.3842 | 1.4
303.15 K, 101.3 kPa, x1 = 0.4597 | 1.5
303.15 K, 101.3 kPa, x1 = 0.5389 | 1.6
303.15 K, 101.3 kPa, x1 = 0.609 | 1.8
303.15 K, 101.3 kPa, x1 = 0.6872 | 1.9
303.15 K, 101.3 kPa, x1 = 0.7741 | 2.1
303.15 K, 101.3 kPa, x1 = 0.7928 | 2.2
303.15 K, 101.3 kPa, x1 = 0.926 | 2.6
308.15 K, 101 kPa, x1 = 0.0698 | 0.9456
308.15 K, 101.3 kPa, x1 = 0.0716 | 0.89
308.15 K, 101.3 kPa, x1 = 0.1365 | 0.93
308.15 K, 101.3 kPa, x1 = 0.2357 | 1.05
308.15 K, 101.3 kPa, x1 = 0.3142 | 1.1
308.15 K, 101.3 kPa, x1 = 0.3842 | 1.2
308.15 K, 101.3 kPa, x1 = 0.4597 | 1.3
308.15 K, 101.3 kPa, x1 = 0.5389 | 1.5
308.15 K, 101.3 kPa, x1 = 0.609 | 1.5
308.15 K, 101.3 kPa, x1 = 0.6872 | 1.7
308.15 K, 101.3 kPa, x1 = 0.7741 | 1.8
308.15 K, 101.3 kPa, x1 = 0.7928 | 1.9
308.15 K, 101.3 kPa, x1 = 0.926 | 2.3
313.15 K, 101 kPa, x1 = 0.0698 | 0.8712
313.15 K, 101 kPa, x1 = 0.1005 | 0.916
313.15 K, 101 kPa, x1 = 0.1991 | 1.016
313.15 K, 101 kPa, x1 = 0.3014 | 1.145
313.15 K, 101 kPa, x1 = 0.4071 | 1.319
313.15 K, 101 kPa, x1 = 0.4991 | 1.465
313.15 K, 101 kPa, x1 = 0.6093 | 1.622
313.15 K, 101 kPa, x1 = 0.7024 | 1.8
313.15 K, 101 kPa, x1 = 0.8108 | 1.986
313.15 K, 101 kPa, x1 = 0.9 | 2.174
313.15 K, 101.3 kPa, x1 = 0.0716 | 0.8
313.15 K, 101.3 kPa, x1 = 0.1365 | 0.85
313.15 K, 101.3 kPa, x1 = 0.2357 | 0.95
313.15 K, 101.3 kPa, x1 = 0.3142 | 1.04
313.15 K, 101.3 kPa, x1 = 0.3842 | 1.1
313.15 K, 101.3 kPa, x1 = 0.4597 | 1.2
313.15 K, 101.3 kPa, x1 = 0.5389 | 1.3
313.15 K, 101.3 kPa, x1 = 0.609 | 1.4
313.15 K, 101.3 kPa, x1 = 0.6872 | 1.5
313.15 K, 101.3 kPa, x1 = 0.7741 | 1.7
313.15 K, 101.3 kPa, x1 = 0.7928 | 1.7
313.15 K, 101.3 kPa, x1 = 0.926 | 2
318.15 K, 101 kPa, x1 = 0.0698 | 0.8052
318.15 K, 101.3 kPa, x1 = 0.0716 | 0.73
318.15 K, 101.3 kPa, x1 = 0.1365 | 0.77
318.15 K, 101.3 kPa, x1 = 0.2357 | 0.86
318.15 K, 101.3 kPa, x1 = 0.3142 | 0.94
318.15 K, 101.3 kPa, x1 = 0.3842 | 1.02
318.15 K, 101.3 kPa, x1 = 0.4597 | 1.1
318.15 K, 101.3 kPa, x1 = 0.5389 | 1.2
318.15 K, 101.3 kPa, x1 = 0.609 | 1.2
318.15 K, 101.3 kPa, x1 = 0.6872 | 1.3
318.15 K, 101.3 kPa, x1 = 0.7741 | 1.5
318.15 K, 101.3 kPa, x1 = 0.7928 | 1.5
318.15 K, 101.3 kPa, x1 = 0.926 | 1.8
323.15 K, 101.3 kPa, x1 = 0.0716 | 0.64
323.15 K, 101.3 kPa, x1 = 0.1365 | 0.68
323.15 K, 101.3 kPa, x1 = 0.2357 | 0.75
323.15 K, 101.3 kPa, x1 = 0.3142 | 0.83
323.15 K, 101.3 kPa, x1 = 0.3842 | 0.89
323.15 K, 101.3 kPa, x1 = 0.4597 | 0.93
323.15 K, 101.3 kPa, x1 = 0.5389 | 0.98
323.15 K, 101.3 kPa, x1 = 0.609 | 1.04
323.15 K, 101.3 kPa, x1 = 0.6872 | 1.1
323.15 K, 101.3 kPa, x1 = 0.7741 | 1.2
323.15 K, 101.3 kPa, x1 = 0.7928 | 1.2
323.15 K, 101.3 kPa, x1 = 0.926 | 1.5
